Measured values: paper PMC8482766 (Journal of Medicinal Chemistry, 2021)
Values after ≈ are worked out from the molar mass of the structure shown. Where two headings read alike, the source gives them in different places.

Columns and labels:
[1] = Thermodynamic solubility at pH 6.8; type: physicochemical
[2] = system: KINOMEscan panel (DiscoverX) of >400 wild-type human kinases; type: binding; details: inhibitor concentration = 1 μM
[3] = system: Madin–Darby canine kidney cells transfected with the human MDR1 gene (MDCK-MDR1); test: MDCK-MDR1 permeability and P-gp efflux assay; type: in vitro ADME; details: MDCK-MDR1, conclusion in words
P-gp (human MDR1) = test: MDCK-MDR1 permeability and P-gp efflux assay; type: in vitro ADME, canine; details: dog, MDCK-MDR1
[4] = In vivo pharmacokinetic study, i.v. in Sprague–Dawley rats; details: 1 mg/kg i.v.
DYRK1A [5] = molecular target: T1, DYRK1A (Homo sapiens, UniProt Q13627); type: binding; details: for LE: LE = 1.4(pIC50)/nonhydrogen atoms; for LLE: LLE = pIC50 – clog P
[6] = system: in-house panel of 48 representative kinases; type: binding
DYRK1A [7] = molecular target: T1, DYRK1A; type: binding; details: SPR, dissociation rate (off-rate)
[8] = relative to reference compound/matched-molecular pair 11

Row | fold reduction in DYRK1A binding affinity (DYRK1A [5]; [8]) | Compound | S score (35) [2] | further results
1 | > 10 fold | Cc1ccc2c(-c3ccnc(N(C)C)n3)cnn2n1 [Compound 62] |  | 
2 | ~10 fold | Cc1ccnn2ncc(-c3ccnc(N(C)C)n3)c12 [Compound 64] |  | 
3 | > 10 fold | COc1ccc2c(-c3ccnc(N(C)C)n3)cnn2n1 [Compound 65] |  | 
4 | ~2 fold | COc1ccnn2ncc(-c3ccnc(N(C)C)n3)c12 [Compound 66, 4-(4-Methoxypyrazolo[1,5-b]pyridazin-3-yl)-N,N-dimethyl-pyrimidin-2-amine] |  | 
5 | approximately 10 fold | CN(C)c1cccc(-c2cnn3ncccc23)n1 [Compound 111] |  | LE (DYRK1A [5]): 0.47; LLE (DYRK1A [5]): 3.79
6 | 10 fold | CN(C)c1cc(-c2cnn3ncccc23)ccn1 [Compound 113] |  | LE (DYRK1A [5]): 0.48; LLE (DYRK1A [5]): 4.31

Second part, the compound before the results:

Row | Compound | fold reduction in DYRK1A binding affinity (DYRK1A [5]; [8]) | S score (35) [2] | further results
7 | Cc1cccc(N(C)c2nccc(-c3cnn4ncccc34)n2)c1 [Compound 8b] |  |  | solubility [1]: 10 µg/mL (≈ 31.6 µM)
8 | CN(C)c1nccc(-c2cnn3ncccc23)n1 [Compound 11, N,N-Dimethyl-4-pyrazolo[1,5-b]pyridazin-3-yl-pyrimidin-2-amine] |  | 0.027 | P-gp substrate [3]: not a P-gp substrate; Papp A→B (P-gp (human MDR1)): 71.4 ± 0.65 ×10⁻⁶ cm/s; Papp B→A (P-gp (human MDR1)): 58.7 ± 1.45 ×10⁻⁶ cm/s; adverse effects [4]: no adverse effects reported
9 | CN(c1nccc(-c2cnn3ncccc23)n1)C1CC1 [Compound 12, N-Cyclopropyl-N-methyl-4-pyrazolo[1,5-b]pyridazin-3-yl-pyrimidin-2-amine] |  | 0.013 | 
10 | CC(C)N(c1nccc(-c2cnn3ncccc23)n1)C1CC1 [Compound 13] |  |  | fold reduction in DYRK1A binding affinity (DYRK1A [5]; matched-molecular pairs 12 and 13): 10 fold
11 | c1cnn2ncc(-c3ccnc(N4CCC45COC5)n3)c2c1 [Compound 22, 1-(4-Pyrazolo[1,5-b]pyridazin-3-yl-pyrimidin-2-yl)-6-oxa-1-azaspiro[3.3]heptane] |  | 0.042 | 
12 | CC1CCCN1c1nccc(-c2cnn3ncccc23)n1 (stereo not shown) [Compound 24, 3-[2-(2-Methylpyrrolidin-1-yl)pyrimidin-4-yl]pyrazolo[1,5-b]pyridazine] |  | 0.004 | 
13 | C[C@H]1CCN(c2nccc(-c3cnn4ncccc34)n2)C1 [Compound 28, 3-[2-[(3S)-3-Methylpyrrolidin-1-yl]pyrimidin-4-yl]pyrazolo[1,5-b]pyridazine] |  | 0.050 | 
14 | C[C@@H]1CCN(c2nccc(-c3cnn4ncccc34)n2)C1 [Compound 29, 3-[2-[(3R)-3-Methylpyrrolidin-1-yl]pyrimidin-4-yl]pyrazolo[1,5-b]pyridazine] |  | 0.035 | 
15 | F[C@@H]1CCN(c2nccc(-c3cnn4ncccc34)n2)C1 [Compound 31, 3-[2-[(3R)-3-Fluoropyrrolidin-1-yl]pyrimidin-4-yl]pyrazolo[1,5-b]pyridazine] |  | 0.011 | 
16 | N[C@H]1CCN(c2nccc(-c3cnn4ncccc34)n2)C1 [Compound 33, (3S)-1-(4-pyrazolo[1,5-b]pyridazin-3-yl-pyrimidin-2-yl)pyrrolidin-3-amine] |  | 0.027 | 
17 | Cc1nn2ncccc2c1-c1ccnc(N(C)C)n1 [Compound 60] |  |  | DYRK1A binding affinity (in words) (DYRK1A [5]; TR-FRET assay): no binding affinity
18 | Cc1cnn2ncc(-c3ccnc(N(C)C)n3)c2c1 [Compound 63, N,N-Dimethyl-4-(5-methylpyrazolo[1,5-b]pyridazin-3-yl)pyrimidin-2-amine] |  | 0.027 | 
19 | CN(C)c1nccc(-c2c[nH]c3ncccc23)n1 [Compound 78] |  |  | selectivity by thermal stabilization (in words) [6]: cross-reacted with several additional kinases including the NAK kinases AAK1 and BMP2K
20 | CN(C)c1ncc(F)c(-c2cnn3ncccc23)n1 [Compound 95, 5-Fluoro-N,N-dimethyl-4-pyrazolo[1,5-b]pyridazin-3-yl-pyrimidin-2-amine] |  |  | kd (DYRK1A [7]): 0.06 s^–1
